What was measured:
[1] = system: mouse B16 melanocytes; conditions: Example 3, preliminary cytotoxicity study on the cells
Method: Melanocytes (mouse line B16) were seeded in 96-well plates at 2000 cells per well in phenol red-free DMEM medium containing 10% fetal calf serum, 2 mM glutamine, 1 mM sodium pyruvate and 100 μg/ml normocin. The following day, the cells were treated with 0.1 μM of NDP-MSH to induce pigmentation. Under the test conditions, in the presence of NDP-MSH, kojic acid at 3 mM and vitamin C (ascorbyl glucoside) at 0.5% were used as positive controls for pigmentation inhibition, and the extracts to be evaluated were tested at several concentrations. All the conditions were tested in triplicate. The cells were incubated at 37° C., 5% CO2 for 72 h in the presence of the extracts and positive controls.

[2] = system: mouse B16 melanocytes; assay: Inhibition of melanin production by NDP-MSH-stimulated B16 melanocytes (melanin assay, absorbance at 405 nm); format: cell-based; conditions: for inhibition of pigmentation (melanin production): Example 3, FIG. 3, B16 + NDP-MSH, extract 0.035%, hexylresorcinol 5 μg/mL, alone or combined, kojic acid and vitamin C positive controls; for efficacy as positive control for pigmentation inhibition (melanin production): Example 2, FIGS. 1 and 2, B16 + 0.1 μM NDP-MSH, 72 h, kojic acid 3 mM, vitamin C (ascorbyl glucoside) 0.5%, ***p<0.001, ****p<0.0001
Method: All the conditions were tested in triplicate.
For the melanin assay, the medium in each well was aspirated and the cells lyzed by adding 50 μl of 1M NaOH to the cell lawn. The plates were shaken for 30 minutes at room temperature, and the lyzate was then transferred to glass flasks and incubated overnight at 95° C. After incubation, the lyzates were centrifuged at 2000 rpm to remove the cell debris. The absorbance of the supernatant was read at 405 nm, reflecting the amount of melanin in each well, and the average of the three replicates was determined for each condition. A well of cells not treated with NDP-MSH was used as a control, and its OD value subtracted from all the OD values of the other wells. The percentage of melanin inhibition was then calculated according to the formula:
100−((melanin amount in test condition/melanin amount in untreated control)×100)
The significance of the results was evaluated using a one-way Anova test (for the distillation residue extract and the oily extract of flowering tops) or Student's t test (for kojic acid and vitamin C).
The results were compared with the effect obtained with the extract according to the invention alone and hexylresorcinol alone, used at the same doses.

CCCCCCc1ccc(O)cc1O [hexylresorcinol, 4-hexyl-1,3-phenylenediol]
maximum non-cytotoxic dose [1]: 10 µg/mL
inhibition of pigmentation (melanin production) [2]: confirms the depigmenting efficacy

O=c1cc(CO)occ1O [kojic acid]
efficacy as positive control for pigmentation inhibition (melanin production) [2]: demonstrating the efficacy
inhibition of pigmentation (melanin production) [2]: demonstrating the efficacy

O=C1O[C@H]([C@@H](O)CO)C(O)=C1O[C@H]1O[C@H](CO)[C@@H](O)[C@H](O)[C@H]1O [vitamin C, ascorbyl glucoside]
efficacy as positive control for pigmentation inhibition (melanin production) [2]: demonstrating the efficacy
inhibition of pigmentation (melanin production) [2]: demonstrating the efficacy

From patent US20240277603A1, “COSMETIC USE OF AN OILY EXTRACT FROM DISTILLATION RESIDUE OF IMMORTELLE AS A SKIN BRIGHTENING AGENT” (LABORATOIRES M&L, priority 2021, published 2024)
